Source: US10112944B2, “Heterocyclic compounds useful as inhibitors of TNF” (BRISTOL-MYERS SQUIBB COMPANY, priority 2015, dated 2018)

Molecular target: TNFα (Homo sapiens (Human), UniProt P01375)
Experiment: TNF induced HEK-Blue assay
Type: cell-based
Settings: HEK-Blue-CD40L cells, TNFα 0.5 ng/ml, NF-κB-driven secreted alkaline phosphatase reporter, 18 h
Protocol: TNF or CD40L-Induced HEK-Blue Assay
Test compounds serially diluted in DMSO were plated in an assay plate (Labcyte, Cat. #LP-0200) at final concentrations ranging from 0.004 μM to 25 μM. TNFα (final concentration 0.5 ng/ml) or CD40L (final concentration 30 ng/ml) in assay buffer [DMEM, 4.5 g/l glucose (Gibco, Cat. 21063-029), 10% FBS (Sigma, F4135), 1% Penicillin-Streptomycin (Gibco, Cat. 15140-122), 1% Anti-Anti (Gibco, Cat. 15240-112) and 2 mM L-glutamine (Gibco, Cat. 25030-081)] was then added to the assay plate. After a 30 minute pre-incubation at 37° C. and 5% CO2, HEK-Blue-CD40L cells (InvivoGen, Cat. Code hkb-cd40) containing a NF-κB-driven secreted alkaline phosphatase reporter gene were seeded into the assay plate at a density of 20,000 cells per well. This plate was then incubated for 18 h at 37° C. and 5% CO2. Secreted alkaline phosphatase expression was measured using QUANTI-Blue (InvivoGen, Cat. Code rep-qbl) according to manufacturer's specifications and the assay plate was read on a PerkinElmer Envision at 620 nm.
Inhibition data for the test compound over a range of concentrations was plotted as percentage inhibition of the test compound (100%=maximum inhibition). IC50 values were determined after correcting for background [(sample read−mean of low control)/(mean of high control−mean of low control)] where by the low control is DMSO without stimulation and high control is DMSO with stimulation. The IC50 is defined as the concentration of test compound which produces 50% inhibition and was quantified using the 4 parameter logistic equation to fit the data.

Chain of TNFα (P01375 77-233): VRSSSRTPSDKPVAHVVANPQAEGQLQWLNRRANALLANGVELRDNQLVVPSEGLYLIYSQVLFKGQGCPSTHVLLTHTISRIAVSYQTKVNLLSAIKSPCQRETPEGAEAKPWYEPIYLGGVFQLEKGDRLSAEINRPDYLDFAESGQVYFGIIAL

SMILES | IC50
FC(F)Oc1ccccc1N1CCCc2nc3ccc(-c4cnc(N5CCOCC5)nc4)cn3c21 [Example 15, 4-(5-(1-(2-(Difluoromethoxy)phenyl)-1,2,3,4-tetrahydroimidazo[1,2-a:5,4-b′]dipyridin-8-yl)pyrimidin-2-yl)morpholine] | < 1000 nM
Cc1ccc(C)c(N2CCCc3nc4ccc(-c5ccc(-c6nnc(C)o6)cc5)cn4c32)c1 [Example 16, 2-(4-(1-(2,5-Dimethylphenyl)-1,2,3,4-tetrahydroimidazo[1,2-a:5,4-b′]dipyridin-8-yl)phenyl)-5-methyl-1,3,4-oxadiazole] | < 1000 nM
Cc1nnc(-c2ccc(-c3ccc4nc5c(n4c3)N(c3ccccc3OC(F)F)CCC5)cc2)o1 [Example 17, 2-(4-(1-(2-(Difluoromethoxy)phenyl)-1,2,3,4-tetrahydroimidazo[1,2-a:5,4-b′]dipyridin-8-yl)phenyl)-5-methyl-1,3,4-oxadiazole] | < 1000 nM
Cc1ccc(C)c(N2CCCc3nc4ccc(-c5cnc(C(C)(C)O)nc5)cn4c32)c1 [Example 18, 2-(5-(1-(2,5-Dimethylphenyl)-1,2,3,4-tetrahydroimidazo[1,2-a:5,4-b′]dipyridin-8-yl)pyrimidin-2-yl)propan-2-ol] | < 1000 nM
Cc1ccc(OC(F)F)c(N2CCCc3nc4ccc(-c5cnc(N6CCOCC6)nc5)cn4c32)c1 [Example 19, 4-(5-(1-(2-(Difluoromethoxy)-5-methylphenyl)-1,2,3,4-tetrahydroimidazo [1,2-a:5,4-b′]dipyridin-8-yl)pyrimidin-2-yl)morpholine] | < 1000 nM
COc1ccc(-c2ccc3nc4c(n3c2)N(c2cc(C)ccc2OC(F)F)CCC4)cn1 [Example 20, 1-(2-(Difluoromethoxy)-5-methylphenyl)-8-(6-methoxypyridin-3-yl)-1,2,3,4-tetrahydroimidazo[1,2-a:5,4-b′]dipyridine] | < 1000 nM
CC(C)(O)c1ncc(-c2cn3c4c(nc3cc2Cl)CCCN4c2ccccc2)cn1 [Example 21, 2-(5-(7-Chloro-1-phenyl-1,2,3,4-tetrahydroimidazo[1,2-a:5,4-b′]dipyridin-8-yl)pyrimidin-2-yl)propan-2-ol] | < 1000 nM
COc1ccc(-c2cn3c4c(nc3cc2Cl)CCCN4c2ccccc2OC(F)F)cn1 [Example 22, 7-Chloro-1-(2-(difluoromethoxy)phenyl)-8-(6-methoxypyridin-3-yl)-1,2,3,4-tetrahydroimidazo[1,2-a:5,4-b′]dipyridine] | 1000 to 10000 nM
COc1ccc(-c2cn3c4c(nc3cc2Cl)CCCN4c2cc(C)ccc2C)cn1 [Example 23, 7-Chloro-1-(2,5-dimethylphenyl)-8-(6-methoxypyridin-3-yl)-1,2,3,4-tetrahydroimidazo[1,2-a:5,4-b′]dipyridine] | 1000 to 10000 nM
COc1ccc(-c2ccc3nc4c(n3c2)N(c2cccc(C)c2C)CCC4)cn1 [Example 24, 1-(2,3-Dimethylphenyl)-8-(6-methoxypyridin-3-yl)-1,2,3,4-tetrahydroimidazo [1,2-a:5,4-b′]dipyridine] | 1000 to 10000 nM
COc1ccc(-c2ccc3nc4c(n3c2)N(c2cc(F)ccc2C)CCC4)cn1 [Example 25, 1-(5-Fluoro-2-methylphenyl)-8-(6-methoxypyridin-3-yl)-1,2,3,4-tetrahydroimidazo [1,2-a:5,4-b′]dipyridine] | < 1000 nM
COc1ccc(-c2ccc3nc4c(n3c2)N(c2ccc(F)cc2C)CCC4)cn1 [Example 26, 1-(4-Fluoro-2-methylphenyl)-8-(6-methoxypyridin-3-yl)-1,2,3,4-tetrahydroimidazo [1,2-a:5,4-b′]dipyridine] | < 1000 nM
CCc1ccccc1N1CCCc2nc3ccc(-c4ccc(OC)nc4)cn3c21 [Example 28, 1-(2-Ethylphenyl)-8-(6-methoxypyridin-3-yl)-1,2,3,4-tetrahydroimidazo [1,2-a:5,4-b′]dipyridine] | < 1000 nM
COc1ccc(-c2ccc3nc4c(n3c2)N(c2ccc(C)cc2C)CCC4)cn1 [Example 30, 1-(2,4-Dimethylphenyl)-8-(6-methoxypyridin-3-yl)-1,2,3,4-tetrahydroimidazo[1,2-a:5,4-b′]dipyridine] | 1000 to 10000 nM
COc1ccc(-c2ccc3nc4c(n3c2)N(c2ccccc2Cl)CCC4)cn1 [Example 31, 1-(2-Chlorophenyl)-8-(6-methoxypyridin-3-yl)-1,2,3,4-tetrahydroimidazo[1,2-a:5,4-b′]dipyridine] | < 1000 nM
COc1ccc(-c2ccc3nc4c(n3c2)N(c2cc(Cl)ccc2C)CCC4)cn1 [Example 32, 1-(5-Chloro-2-methylphenyl)-8-(6-methoxypyridin-3-yl)-1,2,3,4-tetrahydroimidazo[1,2-a:5,4-b′]dipyridine] | < 1000 nM
CC(C)(O)c1ncc(-c2ccc3nc4c(n3c2)N(c2ccccc2OC(F)F)CCC4)cn1 [Example 34, 2-(5-(1-(2-(Difluoromethoxy)phenyl)-1,2,3,4-tetrahydroimidazo[1,2-a:5,4-b′]dipyridin-8-yl)pyrimidin-2-yl)propan-2-ol] | < 1000 nM
CC(C)(O)c1ccc(-c2ccc3nc4c(n3c2)N(c2ccccc2OC(F)F)CCC4)cc1 [Example 35, 2-(4-(1-(2-(Difluoromethoxy)phenyl)-1,2,3,4-tetrahydroimidazo[1,2-a:5,4-b′]dipyridin-8-yl)phenyl)propan-2-ol] | < 1000 nM
Cc1ccc(C)c(N2CCCc3nc4ccc(-c5ccc(C(C)(C)O)cc5)cn4c32)c1 [Example 36, 2-(4-(1-(2,5-Dimethylphenyl)-1,2,3,4-tetrahydroimidazo[1,2-a:5,4-b′]dipyridin-8-yl)phenyl)propan-2-ol] | 1000 to 10000 nM
COc1ccc(-c2ccc3nc4c(n3c2)N(c2cc(C)ccc2C)CCC4C)cn1 (stereo not drawn) [Example 37, 1-(2,5-Dimethylphenyl)-8-(6-methoxypyridin-3-yl)-4-methyl-1,2,3,4-tetrahydroimidazo[1,2-a:5,4-b′]dipyridine] | < 1000 nM
COc1ccc(-c2ccc3nc4c(n3c2)N(c2ccccc2OC(F)F)CCC4C)cn1 (stereo not drawn) [Example 38, 1-(2-(Difluoromethoxy)phenyl)-8-(6-methoxypyridin-3-yl)-4-methyl-1,2,3,4-tetrahydroimidazo[1,2-a:5,4-b′]dipyridine] | < 1000 nM
Cc1ccc(C)c(N2CCC(C)c3nc4ccc(-c5cnn(C)c5)cn4c32)c1 (stereo not drawn) [Example 39, 1-(2,5-Dimethylphenyl)-4-methyl-8-(1-methyl-1H-pyrazol-4-yl)-1,2,3,4-tetrahydroimidazo[1,2-a:5,4-b′]dipyridine] | < 1000 nM
CC1CCN(c2ccccc2OC(F)F)c2c1nc1ccc(-c3cnn(C)c3)cn21 (stereo not drawn) [Example 40, 1-(2-(Difluoromethoxy)phenyl)-4-methyl-8-(1-methyl-1H-pyrazol-4-yl)-1,2,3,4-tetrahydroimidazo[1,2-a:5,4-b′]dipyridine] | < 1000 nM
Cc1ccc(C)c(N2CCCc3nc4c(C)c(C)c(-c5cnc(N6CCOCC6)nc5)cn4c32)c1 [Example 41, 4-(5-(1-(2,5-Dimethylphenyl)-6,7-dimethyl-1,2,3,4-tetrahydroimidazo [1,2-a:5,4-b′]dipyridin-8-yl)pyrimidin-2-yl)morpholine] | 1000 to 10000 nM
